Source: patent US20070105721A1, “Vinylogous 4-Hpyrones and their use in promoting plant growth” (priority 2003, published 2007)

System: test species
Experiment: Germination tests in a range of test species
Format: in vivo
Settings: each of the test species
Experimental: Grand Rapids Lettuce seeds (Waltham strain) were obtained from R.B. Dessert Seed Co. and were frozen in sachets until use. For testing of aqueous samples, 2.5 mL of test solution was applied to three replicates of 40-50 seeds in Petri dishes (90 mm) lined with two layers of Whatman No. 1 filter paper (7 cm). Millipore filtered water (MP water) was used as a control for each experiment and dilutions of each sample were used to ensure the optimum concentration range for activity. Fractions were reconstituted to their original concentration (before fractionation) and dilutions were made using MP water. Petri dishes were sealed with a layer of plastic wrap, and stored in a light proof container. All manipulations involving the seed were carried out in a dark room and germinants, based on the appearance of a radicle, were scored after 48 hours incubation.
Conostylis aculeata and Stylidium affine seeds were obtained from Nindethana seed service and stored before use. For testing of aqueous samples, three replicates of 20-30 sterilised seeds were added to UV sterilised petri dishes (90 mm), containing two Whatman No. 1 filter papers (7 cm) moistened with the filtered test solution (2.5 mL, 0.22 μm). […] The seeds were scored on a weekly basis with optimum germination achieved between 4-6 weeks.

With `Cc1c2ccocc-2oc1=O` [Compound 1a, 3-Methyl-2H-furo[2,3-c]pyran-2-one] the “concentration for which germination promoting activity has been shown” value was 100 ppt.
